Data: paper PMC5869712 (Scientific Reports, 2018)

Experiments:
[1] = biological target: T1, ITK (Homo sapiens, UniProt Q08881); assay: Cys-containing kinase family panel (EurofinsCerep); format: biochemical
T1 construct: EurofinsCerep (contract assay service)

[2] = biological target: T2, Aurora-A (Homo sapiens, UniProt O14965); assay: Eurofins Kinase Profiler panel; format: biochemical
T2 construct: Eurofins Pharma Discovery Services UK Limited (Kinase Profiler service)

[3] = biological target: T3, B-Raf (Homo sapiens, UniProt P15056); assay: Eurofins Kinase Profiler panel; format: biochemical; details: read-out: % inhibition (1μM), DMSO control=100%, lower=stronger
T3 construct: purchased Eurofins KinaseProfiler (Eurofins Pharma Discovery Services UK, Dundee); JAK3 also ChemPartner
T3 sequence (P15056 whole entry): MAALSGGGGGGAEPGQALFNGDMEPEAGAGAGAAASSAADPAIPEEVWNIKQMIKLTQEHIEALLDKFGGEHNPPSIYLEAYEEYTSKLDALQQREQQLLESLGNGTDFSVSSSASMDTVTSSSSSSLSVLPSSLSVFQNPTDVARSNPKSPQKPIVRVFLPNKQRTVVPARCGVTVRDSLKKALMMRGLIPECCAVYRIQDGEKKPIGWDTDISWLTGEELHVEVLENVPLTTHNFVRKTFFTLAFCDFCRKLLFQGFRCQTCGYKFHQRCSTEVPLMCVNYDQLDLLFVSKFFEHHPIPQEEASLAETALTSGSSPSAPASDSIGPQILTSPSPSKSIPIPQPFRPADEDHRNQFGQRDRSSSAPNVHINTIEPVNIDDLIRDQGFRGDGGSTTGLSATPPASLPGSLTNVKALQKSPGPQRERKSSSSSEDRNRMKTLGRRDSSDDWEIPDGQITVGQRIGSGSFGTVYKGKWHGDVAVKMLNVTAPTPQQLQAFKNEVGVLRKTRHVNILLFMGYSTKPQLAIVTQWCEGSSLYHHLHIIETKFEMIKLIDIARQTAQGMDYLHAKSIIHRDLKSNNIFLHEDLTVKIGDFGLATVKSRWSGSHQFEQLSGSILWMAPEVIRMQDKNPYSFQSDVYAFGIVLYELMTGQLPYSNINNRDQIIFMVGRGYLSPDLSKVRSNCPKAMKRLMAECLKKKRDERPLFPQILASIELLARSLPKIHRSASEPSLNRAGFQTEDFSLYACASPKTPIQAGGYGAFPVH

[4] = test system: IL-2-induced STAT5 phosphorylation (JAK1/JAK3); assay: IL-2-induced pSTAT5 in total lymphocytes in hPBMCs, flow cytometry; format: cell-based; details: Homo sapiens, Lymphocyte, hPBMC total lymphocytes, trigger IL-2, readout pSTAT5
[5] = test system: DBA/1 mice with collagen-induced arthritis; assay: Collagen-induced arthritis mouse model: clinical score, histology, safety; format: in vivo; details: CIA mice; for group mean histological severity score: model group 3.8, grades 0-4
Protocol: The animal protocol was approved by the Animal Care and Use Committee of Sichuan University in China (IACUC number: 20100318). DBA/1 J mice (male, 6 weeks old) were obtained from Jackson Laboratory (Bar Harbor, ME). One day before the start of the experiment, CII solution (2 mg/ml) was prepared with 0.05 M acetic acid and stored at 4 °C. Just before the immunization, equal volumes of IFA and CII were mixed by a homogenizer in a precooled glass bottle in an ice water bath. Arthritis was induced in 8-week old male DBA/1 mice by immunizations with a 1:1 emulsion of bovine type II collagen (Chondrex) and Freund’s complete adjuvant (Sigma-Aldrich) on day 0 and with a 1:1 emulsion of bovine type II collagen in Freund’s incomplete adjuvant (Sigma-Aldrich) on day 21. […] On the day treatment was initiated, the mice were randomly assigned to controls (no collagen injection plus vehicle; […]. Mice were scored daily for signs of arthritis for 33 days. CIA development was inspected three times per week, and the inflammation of the four paws was graded from 0 to 4 (grade 0, paws with no swelling or focal redness; grade 1, paws with swelling of finger joints; grade 2, paws with a mild swelling of the ankle or wrist joints; grade 3, paws with severe inflammation of the entire paw; and grade 4, paws with deformity or ankylosis). Each paw was graded, and the four scores were totalled so that the possible maximum score per mouse was 16.
DBA1/J mice were sacrificed on day 33 after treatment and ankle joints were removed and fixed with 4% paraformaldehyde for more than 48 h. The joints were decalcified in EDTA buffer for 21 days and then embedded in paraffin blocks. Joint sections were stained with H&E or safranin O-fast green. Histological changes were examined under microscope using methods modified from McKew et al.[43] as follows: grade 0 = no abnormal findings; grade 1 = synoviocyte hypertrophy, slight synovial membrane fibrosis, slight-to-mild inflammatory cell infiltrates into the synovial membrane/articular capsule and/or joint space; grade 2 = grade 1 plus mild-to-moderate inflammatory cell infiltrates, pannus formation (if present) minimal with superficial cartilage erosion; grade 3 = grade 2 plus marked inflammatory cell infiltrates and fibrosis, mild-to-severe erosion of the cartilage extending into the subchondral bone; and grade 4 = loss of joint integrity through erosion or destruction with bone remodelling, massive inflammatory cell infiltrates, fibrosis, and ankylosis.

[6] = test system: BALB/c mice; assay: Acute oral toxicity and haematology analysis in BALB/c mice; details: for HCT / HGB / LY / MCH / MCHC / MCV / MO / PLT / RBC / WBC: Balb/c mice

T2 sequence (O14965 whole entry): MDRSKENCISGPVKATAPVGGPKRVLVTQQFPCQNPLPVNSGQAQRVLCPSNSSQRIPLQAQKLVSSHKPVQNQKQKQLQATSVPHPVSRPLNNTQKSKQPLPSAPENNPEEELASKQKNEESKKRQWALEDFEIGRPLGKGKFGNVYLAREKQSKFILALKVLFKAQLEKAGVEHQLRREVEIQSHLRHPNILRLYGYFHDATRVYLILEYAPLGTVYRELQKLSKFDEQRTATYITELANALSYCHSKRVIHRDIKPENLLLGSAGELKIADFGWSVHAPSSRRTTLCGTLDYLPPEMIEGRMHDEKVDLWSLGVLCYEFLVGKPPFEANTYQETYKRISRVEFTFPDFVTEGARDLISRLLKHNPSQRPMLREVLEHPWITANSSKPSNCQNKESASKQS
T1 sequence (Q08881 whole entry): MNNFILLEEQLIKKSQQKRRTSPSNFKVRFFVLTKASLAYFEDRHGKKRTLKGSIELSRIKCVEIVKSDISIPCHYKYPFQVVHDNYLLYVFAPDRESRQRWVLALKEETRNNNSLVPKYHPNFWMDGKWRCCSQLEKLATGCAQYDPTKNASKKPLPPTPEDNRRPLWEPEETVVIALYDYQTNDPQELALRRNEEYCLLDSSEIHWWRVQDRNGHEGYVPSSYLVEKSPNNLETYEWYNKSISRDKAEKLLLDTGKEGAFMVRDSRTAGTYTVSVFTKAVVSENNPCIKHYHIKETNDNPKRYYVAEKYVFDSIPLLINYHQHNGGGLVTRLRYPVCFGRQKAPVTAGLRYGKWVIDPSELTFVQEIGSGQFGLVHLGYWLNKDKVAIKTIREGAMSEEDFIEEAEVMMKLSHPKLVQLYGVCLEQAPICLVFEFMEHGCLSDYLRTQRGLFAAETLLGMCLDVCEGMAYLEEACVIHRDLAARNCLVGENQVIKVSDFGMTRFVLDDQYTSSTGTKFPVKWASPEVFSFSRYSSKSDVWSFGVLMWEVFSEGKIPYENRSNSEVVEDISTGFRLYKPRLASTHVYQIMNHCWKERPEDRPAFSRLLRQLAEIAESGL

C=CC(=O)N[C@@H]1CCCN(c2ncnc3[nH]ccc23)C1 [RB1] was tested, and the inhibition at 1 µM [1] was -5.9%, the IC50 ([2]; estimated) was over 800 nM and the activity at 1 µM ([2]; read-out: % inhibition (1μM), 1 µM, DMSO control=100%, lower=stronger) was 21%. For the same molecule, the activity at 1 µM [3] was 90%, the IC50 [4] was 105 nM and the “H&E analysis of the major organs” value [5] was “no significant side effects”. For the same molecule, the “body weight during treatment” value [5] was “no fluctuations”, the “group mean histological severity score” value ([5]; 10 mg/kg) was 2.5 and the “group mean histological severity score” value ([5]; 30 mg/kg) was 1.7. The “group mean histological severity score” value ([5]; 100 mg/kg) was 0.9, the “arthritis (clinical) scores” value ([5]; p < 0.05 at 10 mg/kg, p < 0.001 at 30 and 60 mg/kg (so in the source)) was “lower arthritis scores than untreated CIA mice” and the “acute haematological toxicity in WBC and lymphocyte counts” value ([6]; BALB/c mice, oral, even at 1000 mg/kg, after 14 days) was “did not induce significant acute haematological toxicity”. For the same molecule, the “acute oral toxicity, adverse effects” value ([6]; BALB/c mice, single doses, 14-days recovery time) was “no obvious adverse results”, the HCT ([6]; oral 100 mg/kg) was 46.94 ± 1.80% and the HGB ([6]; oral 100 mg/kg) was 168.12 ± 7.36 g/L. For the same molecule, the LY ([6]; oral 100 mg/kg) was 65.93 ± 3.09%, the MCH ([6]; oral 100 mg/kg) was 16.13 ± 0.12 pg and the MCHC ([6]; oral 100 mg/kg) was 369.77 ± 2.01 g/L. For the same molecule, the MCV ([6]; oral 100 mg/kg) was 48.98 ± 0.22 fL, the MO ([6]; oral 100 mg/kg) was 6.99 ± 1.26% and the PLT ([6]; oral 100 mg/kg) was 385.34 ± 43.61 1×109/L. The RBC ([6]; oral 100 mg/kg) was 9.20 ± 0.31 1×1012/L, the WBC ([6]; oral 100 mg/kg) was 9.12 ± 0.98 1×109/L and the HCT ([6]; oral 300 mg/kg) was 44.82 ± 1.77%. The HGB ([6]; oral 300 mg/kg) was 158.49 ± 6.40 g/L, the LY ([6]; oral 300 mg/kg) was 75.04 ± 3.17% and the MCH ([6]; oral 300 mg/kg) was 15.98 ± 0.22 pg. For the same molecule, the MCHC ([6]; oral 300 mg/kg) was 360.54 ± 3.84 g/L, the MCV ([6]; oral 300 mg/kg) was 50.03 ± 0.08 fL and the MO ([6]; oral 300 mg/kg) was 6.50 ± 0.86%. The PLT ([6]; oral 300 mg/kg) was 360.12 ± 33.74 1×109/L, the RBC ([6]; oral 300 mg/kg) was 9.90 ± 0.22 1×1012/L and the WBC ([6]; oral 300 mg/kg) was 8.64 ± 1.05 1×109/L. For the same molecule, the HCT ([6]; oral 1000 mg/kg) was 43.53 ± 1.68%, the HGB ([6]; oral 1000 mg/kg) was 150.33 ± 6.94 g/L and the LY ([6]; oral 1000 mg/kg) was 69.43 ± 1.88%. For the same molecule, the MCH ([6]; oral 1000 mg/kg) was 16.08 ± 0.09 pg, the MCHC ([6]; oral 1000 mg/kg) was 355.00 ± 2.16 g/L and the MCV ([6]; oral 1000 mg/kg) was 49.82 ± 0.12 fL. The MO ([6]; oral 1000 mg/kg) was 8.23 ± 1.08%, the PLT ([6]; oral 1000 mg/kg) was 327.67 ± 46.45 1×109/L and the RBC ([6]; oral 1000 mg/kg) was 10.44 ± 0.16 1×1012/L. The WBC ([6]; oral 1000 mg/kg) was 9.33 ± 1.12 1×109/L.
